The values below come from ChEMBL document CHEMBL1201862, “PubChem BioAssay data set” (2004).

Among the test systems are ACHN; T47D; PC-3; OVCAR-3; NCI-H522; HCT-15; BT-549; EKVX; M14; NCI/ADR-RES; OVCAR-5; MOLT-4; SNB-19; UACC-257; MDA-MB-231; HOP-62; HCT-116; UO-31; IGROV-1; OVCAR-4.
Common to all, as to assay: NCI tumour cell line growth inhibition, 48 h

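Dose response: 5 concentrations. Exposure: 48 h. Format: 96-well plates. Endpoint: linear interpolation; highest concentration if not reached. Abbreviation: GI50, concentration required for 50% inhibition of growth.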 Active and inactive are the calls of the source. Cut-off read from the data, not from the text of the source: active = GI50 up to about 1.1 µM and inactive = higher. Where only a bound is given, the exact number is not on record here.

On to `COC(=O)C(Cc1ccc(OC)cc1O)NC(=O)OC(C)(C)C` (stereo not given), for which the GI50 in the test on ACHN is > 100 µM (inactive); in the test with T47D, > 100 µM (inactive); with PC-3 it was > 100 µM (inactive); in the test on OVCAR-3, > 100 µM (inactive); with NCI-H522, 96.6 µM (inactive); with HCT-15 it was above 100 µM. Moreover, the GI50 in the test on BT-549, with EKVX, in the test with M14, in the test with NCI/ADR-RES, with OVCAR-5 and in the test on MOLT-4 was > 100 µM (inactive) each time. The GI50 in the test with SNB-19 is > 100 µM (inactive); with UACC-257, 22.1 µM (inactive); in the test with MDA-MB-231, > 100 µM (inactive); in the test on HOP-62, > 100 µM (inactive); in the test with HCT-116, > 100 µM (inactive); in the test with UO-31 it was > 100 µM (inactive). The GI50 in the test on IGROV-1 and in the test on OVCAR-4 was > 100 µM (inactive) in each case.
On to `C=C(O)c1ccccc1C#Cc1ccccc1C(=O)OC`, for which the GI50 in the test on ACHN is > 10 µM (inactive); with T47D, > 10 µM (inactive); in the test on PC-3, > 10 µM (inactive); in the test with OVCAR-3, > 10 µM (inactive); with NCI-H522, > 10 µM (inactive); in the test with HCT-15, above 10 µM. Also, the GI50 with BT-549, in the test on EKVX, with M14, with NCI/ADR-RES, with OVCAR-5 and in the test with MOLT-4 was > 10 µM (inactive) each time. In addition, the GI50 in the test on SNB-19, in the test with UACC-257, in the test with MDA-MB-231, with HOP-62, in the test with HCT-116 and with UO-31 was > 10 µM (inactive) throughout. Also, the GI50 with IGROV-1 and in the test with OVCAR-4 was > 10 µM (inactive) each time.
`O=C1C=CC[C@H](/C=C/C[C@@H](O)C[C@H](O)/C=C/c2ccccc2)O1`: the GI50 is 14.6 µM (inactive) in the test with ACHN; 14.3 µM (inactive) in the test with T47D; 14.5 µM (inactive) with PC-3; 11.5 µM (inactive) with OVCAR-3; 4.25 µM (inactive) in the test with NCI-H522; 10.5 µM in the test on HCT-15. For the same compound, the GI50 with BT-549 is 10.8 µM (inactive); with EKVX, 12 µM (inactive); in the test on M14, 14.4 µM (inactive); in the test with NCI/ADR-RES, 19.1 µM (inactive); in the test with OVCAR-5 it was 15.1 µM (inactive); in the test on MOLT-4, 14 µM (inactive). Moreover, the GI50 was 19.2 µM (inactive) with SNB-19; 13.9 µM (inactive) in the test on UACC-257; 10.5 µM (inactive) with MDA-MB-231; 16.5 µM (inactive) in the test with HOP-62; 5.09 µM (inactive) in the test with HCT-116; 13.2 µM (inactive) in the test on UO-31. The GI50 with IGROV-1 was 13.6 µM (inactive); in the test on OVCAR-4, 14.6 µM (inactive).
With `N#CCc1nc(Cc2ccccc2)n[nH]1`, the GI50 with ACHN was > 100 µM (inactive); with T47D, > 100 µM (inactive); in the test with PC-3 it was > 100 µM (inactive); in the test on OVCAR-3 it was > 100 µM (inactive); with NCI-H522 it was > 100 µM (inactive); with HCT-15 it was above 100 µM. The GI50 in the test on BT-549, in the test on EKVX, with M14, in the test on NCI/ADR-RES, with OVCAR-5 and in the test with MOLT-4 was > 100 µM (inactive) each time. Besides, the GI50 in the test with SNB-19, in the test on UACC-257, with MDA-MB-231, in the test with HOP-62, in the test with HCT-116 and with UO-31 was > 100 µM (inactive) in each case. Also, the GI50 in the test on IGROV-1 and with OVCAR-4 was > 100 µM (inactive) in each case.
As for `Cn1cnc2c1c(=O)n(CCNCCO)c(=O)n2C`, the GI50 in the test with ACHN was > 100 µM (inactive); with T47D it was > 100 µM (inactive); with PC-3, > 100 µM (inactive); in the test with OVCAR-3 it was > 100 µM (inactive); in the test on NCI-H522 it was > 100 µM (inactive); in the test on HCT-15, above 100 µM. Further, the GI50 in the test with BT-549, in the test with EKVX, with M14, in the test on NCI/ADR-RES, with OVCAR-5 and with MOLT-4 was > 100 µM (inactive) in each case. The GI50 in the test on SNB-19, with UACC-257, in the test with MDA-MB-231, in the test with HOP-62, in the test on HCT-116 and in the test on UO-31 was > 100 µM (inactive) each time. Also, the GI50 in the test with IGROV-1 and in the test on OVCAR-4 was > 100 µM (inactive) each time.
`CN(C)CCNc1ccc2c(=O)n(CCN(C)C)c(=O)n3c4ccccc4c(=O)c1c23`: the GI50 with ACHN was 0.0161 µM (active); in the test on T47D it was 0.133 µM (active); with PC-3, 0.114 µM (active); with OVCAR-3, 0.218 µM (active); in the test with NCI-H522, 0.0689 µM (active); in the test with HCT-15, 0.0815 µM. In addition, the GI50 with BT-549 was 0.238 µM (active); with EKVX, 0.174 µM (active); with M14 it was 0.0836 µM (active); in the test with NCI/ADR-RES it was 0.14 µM (active); with OVCAR-5 it was 0.318 µM (active); in the test on MOLT-4, < 0.01 µM (active). Besides, the GI50 was 0.137 µM (active) with SNB-19; 0.34 µM (active) in the test with UACC-257; 0.114 µM (active) in the test on MDA-MB-231; 0.0185 µM (active) with HOP-62; 0.0269 µM (active) in the test with HCT-116; 0.166 µM (active) in the test with UO-31. For the same compound, the GI50 is 0.0404 µM (active) with IGROV-1 and 0.27 µM (active) with OVCAR-4.
For `Cc1nc(-c2cc3c(ccc4ccccc43)oc2=O)cc2c1c(=O)oc1ccc3ccccc3c12`, the GI50 is > 100 µM (inactive) with ACHN; > 100 µM (inactive) in the test with T47D; > 100 µM (inactive) in the test with PC-3; > 100 µM (inactive) in the test on OVCAR-3; > 100 µM (inactive) with NCI-H522; above 100 µM in the test on HCT-15. Also, the GI50 with BT-549, with EKVX, in the test on M14, with NCI/ADR-RES, in the test with OVCAR-5 and in the test on MOLT-4 was > 100 µM (inactive) throughout. Besides, the GI50 with SNB-19, with UACC-257, with MDA-MB-231, in the test with HOP-62, with HCT-116 and in the test with UO-31 was > 100 µM (inactive) each time. In addition, the GI50 in the test with IGROV-1 and in the test with OVCAR-4 was > 100 µM (inactive) in each case.
As for `COc1ccc(/C(CC2OC(=O)c3ccccc32)=N\NC(=O)C[N+](C)(C)C)cc1` (stereo not given), the GI50 in the test on ACHN was 28.2 µM (inactive); in the test on T47D it was 25.8 µM (inactive); in the test with PC-3, 47.8 µM (inactive); in the test on OVCAR-3, 30.3 µM (inactive); in the test with NCI-H522, 24.7 µM (inactive); in the test on HCT-15, 19.2 µM. The GI50 in the test on BT-549 was 21.5 µM (inactive); in the test on EKVX, 39.4 µM (inactive); in the test on M14, 38 µM (inactive); in the test with NCI/ADR-RES, 21.2 µM (inactive); in the test on OVCAR-5, > 100 µM (inactive); in the test with MOLT-4, 23.7 µM (inactive). The GI50 with SNB-19 is 29.5 µM (inactive); in the test with UACC-257, 31.3 µM (inactive); with MDA-MB-231, 57.3 µM (inactive); in the test with HOP-62 it was 19.2 µM (inactive); in the test with HCT-116, 22.5 µM (inactive); in the test on UO-31, 26.5 µM (inactive). Further, the results for the GI50 in the test on IGROV-1 and in the test with OVCAR-4 were 34.4 µM (inactive) and 22.6 µM (inactive), respectively.
As to `CC1CC(C)[C@H](O)C([C@H](O)CC2CC(=O)N(C)C(=O)C2)C1` (stereo not given in full), the GI50 was > 100 µM (inactive) in the test with ACHN; > 100 µM (inactive) in the test with T47D; > 100 µM (inactive) in the test with PC-3; > 100 µM (inactive) with OVCAR-3; 57 µM (inactive) with NCI-H522; above 100 µM with HCT-15. Further, the GI50 in the test on BT-549, with EKVX, with M14, with NCI/ADR-RES, with OVCAR-5 and in the test with MOLT-4 was > 100 µM (inactive) each time. Moreover, the GI50 with SNB-19, in the test on UACC-257, with MDA-MB-231, in the test on HOP-62, in the test with HCT-116 and with UO-31 was > 100 µM (inactive) in each case. Besides, the GI50 in the test on IGROV-1 and in the test on OVCAR-4 was > 100 µM (inactive) each time.
As to `O=C1c2scnc2-c2nccc3c2c1nc1ccccc13` [KUANONIAMINE A], the GI50 is 0.955 µM (active) in the test on ACHN; 0.215 µM (active) in the test with T47D; 0.664 µM (active) in the test with PC-3; < 0.0134 µM (active) in the test with OVCAR-3; 0.0169 µM (active) with NCI-H522; 0.207 µM in the test with HCT-15. In addition, the GI50 was 1.25 µM (inactive) in the test on BT-549; 2.92 µM (inactive) in the test with EKVX; 0.564 µM (active) in the test on M14; 0.231 µM (active) in the test on NCI/ADR-RES; 2.63 µM (inactive) in the test with OVCAR-5; 0.469 µM (active) in the test with MOLT-4. The GI50 with SNB-19 was 0.389 µM (active); in the test on UACC-257 it was 0.363 µM (active); in the test on MDA-MB-231, 0.318 µM (active); in the test on HOP-62, 1.04 µM (active); in the test on HCT-116, 0.272 µM (active); with UO-31 it was 1.16 µM (inactive). Moreover, the GI50 in the test with IGROV-1 was 0.774 µM (active); in the test with OVCAR-4, 1.16 µM (inactive).
